B1: Bg001 concatemer 2: dsRNA concatemer, five times repeat of a 50 bp Bg001 fragment (SEQ ID NO 66) (nucleic acid)
DNA: CTTGGGTCGTGTTGGAACTGTAGTTAATCGAGAACGTCATCCTGGTTCCTCTTGGGTCGTGTTGGAACTGTAGTTAATCGAGAACGTCATCCTGGTTCCTCTTGGGTCGTGTTGGAACTGTAGTTAATCGAGAACGTCATCCTGGTTCCTCTTGGGTCGTGTTGGAACTGTAGTTAATCGAGAACGTCATCCTGGTTCCTCTTGGGTCGTGTTGGAACTGTAGTTAATCGAGAACGTCATCCTGGTTCCT
modifications: Concatemer

Test system: German cockroach, Blattella germanica
Experiment: Cockroach laboratory trial of Bg001 dsRNA and Bg001 concatemer 2 (mortality and moulting to adult)
Format: in vivo
Conditions: for number of cockroaches successfully moulting to the adult stage, as a percentage of live insects (means±standard errors, n=4): pellets 1% w/w
Method: Table 3: Effect of dsRNA treatments on the number of cockroaches successfully moulting to the adult stage, as a percentage of live insects (means±standard errors, n=4)
FIG. 2: Mortality of B. germanica on artificial pellet diet. The concentration of dsRNA (Bg001, having the sequence as represented as SEQ ID NO 9, and Bg001 concatemer 2, having the sequence as represented as SEQ ID NO 68) in the pellets was 1% w/w. In this experiment, hexaflumuron (1% w/w) was tested as a positive control and solvent as a negative control.
Stock solutions of 1-10 μg/μl dsRNA in distilled water were prepared. Each dsRNA solution was diluted to the appropriate concentration and mixed with finely ground laboratory diet (Rat and mouse standard diet, B&K Universal Ltd, Hull, UK), which was previously heat treated in order to inactivate any enzymes. The mixture or formulation was formed into small pellets of equal weight (0.3 g) to achieve an end concentration of 0.1% to 2% w/w dsRNA and dried overnight at room temperature.
Newly hatched nymphs from the German cockroach, B. germanica were housed per 10 in plastic lidded containers (29±2° C., minimum 40% relative humidity, with a 12:12 light:dark photoperiod). Animals were starved 24 hours prior to exposure to the pellets. The cockroaches were assessed as live, moribund or dead twice a week until adulthood. The pellet was replaced with freshly prepared pellet once a week. dsRNA containing pellets, formulations, were compared with a negative control (solvent) and a positive control (1 or 2% imidacloprid, commonly used in commercially available cockroach baits).
Concatemers were designed for each target gene. Concatemers are synthetic tandem repeats of 50 to 100 bp dsfragments. In the present example, concatemers were designed by selecting the best possible fragments in regions with homology in protein family as well as at nucleotide level, in regions containing the best predicted siRNAs and in regions with between 40 and 60% GC content, preferably about 50% GC content, if possible.
For Bg001 two concatemers were designed consisting of a five times repeat of a 50 bp fragment, ie represented by SEQ ID NO 65 and 66, resulting in Bg001 concatemer 1 and Bg001 concatemer 2, herein represented respectively as SEQ ID NO 67 and SEQ ID NO 68, and one concatemer was designed consisting of a three times repeat of a 100 bp repeat, ie represented by SEQ ID NO 69, resulting in Bg001 concatemer 3, herein represented as SEQ ID NO 70. XbaI and SmaI flanking sites were added for cloning in a vector to produce dsRNA. These dsRNA constructs comprising the concatemers were tested in the cockroach laboratory trials.
For example at day 48, from the surviving cockroaches treated with Bg001 only 33.3 moulted to the adult stage whereas none of the cockroaches treated with Bg001 concatemer 2 did within this time as shown in Table 3.

Row | Molecule | number of cockroaches successfully moulting to the adult stage, as a percentage of live insects (means±standard errors, n=4) (Day 38) | number of cockroaches successfully moulting to the adult stage, as a percentage of live insects (means±standard errors, n=4) (Day 41) | number of cockroaches successfully moulting to the adult stage, as a percentage of live insects (means±standard errors, n=4) (Day 45) | number of cockroaches successfully moulting to the adult stage, as a percentage of live insects (means±standard errors, n=4) (Day 48) | number of cockroaches successfully moulting to the adult stage, as a percentage of live insects (means±standard errors, n=4) (Day 52) | mortality compared to the negative control (solvent) (artificial pellet diet, dsRNA 1% w/w (FIG. 2))
1 | O=C(NC(=O)c1c(F)cccc1F)Nc1cc(Cl)c(OC(F)(F)C(F)F)c(Cl)c1 [Positive control, hexaflumuron] | 0.0 (±0.0) % | 0.0 (±0.0) % | 0.0 (±0.0) % | 0.0 (±0.0) % | 0.0 (±0.0) % | –
2 | B1 | 0.0 (±0.0) % | 0.0 (±0.0) % | 0.0 (±0.0) % | – | 0.0 (±0.0) % | significant higher

Reference: patent US9290764B2, “RNAi for the control of insects and arachnids” (Devgen NV, priority 2005, dated 2016)
